Data as given in publication PMC5591855, “d-Tubocurarine and Berbamine: Alkaloids That Are Permeant Blockers of the Hair Cell's Mechano-Electrical Transducer Channel and Protect from Aminoglycoside Toxicity” (Frontiers in Cellular Neuroscience, 2017).
pIC50: −log10 of the molar value.

Test system: T1, mechano-electrical transducer (MET) channel
T1 construct: native channel in CD-1 mouse cochlear outer hair cells (organotypic cultures)
Experiment: whole-cell patch clamp of MET currents, extracellular block at -104 mV, […] Ca2+
Type: cell-based, Mus musculus
Settings: read-out: Kd

With berbamine as the compound, how does the pIC50 read?
Its pIC50 is 5.55.

`COc1cc2c3cc1Oc1cc(ccc1O)C[C@@H]1c4c(cc(OC)c(O)c4Oc4ccc(cc4)C[C@@H]3N(C)CC2)CC[N+]1(C)C` [dTC, d-Tubocurarine] was tested. Which pIC50 did it give?
The pIC50 was 5.66.
